Test results taken from patent publication US20190110476A1, “NOVEL ISOTHIAZOLAMIDES, PROCESSES FOR THEIR PREPARATION AND THEIR USE AS FUNGICIDES” (priority 2014, published 2019).
Marks after values point to notes of the source that are not given here.

assay: Measurement of LogP values by HPLC on reversed phase columns (EEC directive 79/831 Annex V.A8); assay type: physicochemical
Procedure, shortened: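 Following EEC directive 79/831 Annex V.A8, lipophilicity was derived from retention on reversed-phase HPLC columns. Separate values are given per diastereoisomer, and UV lambda-max (200–400 nm) was read at the peak signals.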

Row | SMILES | LogP | LogP [a]
1 | COc1ccc(CNc2nsc(C(=O)NCC3CCCCCC3)c2Cl)cc1 [I-045] | 4.69[a] | 
2 | CS(C)=Nc1nsc(C(=O)NCC2CCCO2)c1F (stereo not shown) [II-070] |  | 0.44^[a]
3 | N#CC(NC(=O)c1snc(N)c1Br)C1CCCCC1 (stereo not shown) [I-833] | 2.21[a] | 
4 | COc1ccc(CNc2nsc(C(=O)NC(C)c3cccnc3)c2Cl)cc1 (stereo not shown) [I-1253] | 1.63[a] | 
5 | Cc1ccc(C(C)(C)C)c(CN(C(=O)c2snc(Cl)c2Cl)C2CC2)c1 [E-II-015] |  | 5.65^[a]
6 | Nc1nsc(C(=O)NCC2CCCCCC2)c1Cl [I-054] | 2.86[a] | 
7 | C[C@H](NC(=O)c1snc(Nc2ccccc2)c1Cl)C1CCCCC1 [I-064] | 4.78[a] | 
8 | Cc1c(N)nsc1C(=O)NCc1ccc(F)c(F)c1F [I-597] | 1.68[a] | 
9 | O=C(c1cc(NCc2ccccc2)ns1)N(Cc1cc(F)ccc1F)C1CC1 [I-998] | 3.74[a] | 
10 | CCC(=O)N(C(=O)CC)c1nsc(C(=O)NCc2ccc(C#N)cc2)c1Cl [I-810] | 2.89[a] | 
11 | COc1ccc(CN(C)c2nsc(C(=O)NCc3ccccc3F)c2Cl)cc1 [I-088] | 4.21[a] | 
12 | O=C(NCc1cc(F)ccc1F)c1snc(Cl)c1Cl [E-II-011] |  | 3.17^[a]
13 | COc1ccc(CNc2nsc(C(=O)N(C3CC3)C(C)c3cc(Cl)cc(Cl)c3)c2Cl)cc1 (stereo not shown) [I-928] | 5.36[a] | 
14 | O=C(NC1CCCC2CCCCC21)c1snc(NCc2ccccc2)c1Cl (stereo not shown) [I-046] | 5.23[a] | 
15 | Nc1cc(C(=O)NCc2cccc(Cl)c2)sn1 [I-281] | 1.78[a] | 
16 | C[C@H](NC(=O)c1snc(N)c1C(F)F)C1CCCCC1 [I-270] | 2.96[a] | 
17 | COc1cccc(CNC(=O)c2snc(N)c2Cl)c1 [I-022] | 1.75[a] | 
18 | Nc1nsc(C(=O)Nc2ccc(Cl)cc2)c1Cl [I-878] | 2.51[a] | 
19 | COc1ccc(CNc2nsc(C(=O)NC(Cn3ccnc3)C(C)(C)C)c2Cl)cc1 (stereo not shown) [I-1324] | 1.82[a] | 
20 | Cc1c(N)nsc1C(=O)NCc1ccc(F)c(F)c1 [I-149] | 1.69[a] | 

Row | SMILES | LogP | LogP [a]
21 | Nc1nsc(C(=O)NC2CCCC2c2ccccc2)c1Cl (stereo not shown) [I-288] | 2.71[a] | 
22 | COc1ccc(CNc2nsc(C(=O)NCc3ccnc(OC)c3)c2Cl)cc1 [I-1204] | 2.78[a] | 
23 | CN1C2CCC1CC(NC(=O)c1snc(Cl)c1Cl)C2 (stereo not shown) [E-II-018] |  | 0.66^[a]
24 | COc1ccc(CNc2nsc(C(=O)NC3(C#N)CCCC3C)c2Cl)cc1 (stereo not shown) [I-1220] | 3.41[a] | 
25 | COc1ccc(CNc2nsc(C(=O)NC3CCCCC3c3ccccc3)c2Cl)cc1 (stereo not shown) [I-267] | 4.69[a] | 
26 | Nc1nsc(C(=O)NCC2CCCCC2)c1O [I-797] | 2.12[a] | 
27 | Nc1nsc(C(=O)NCc2ccc(Oc3ccccc3)cc2)c1Cl [I-227] | 2.94[a] | 
28 | COc1ccc(CNc2nsc(C(=O)NCc3ccc(C)n3C)c2Cl)cc1 [I-1320] | 3.39[a] | 
29 | Nc1nsc(C(=O)Nc2ccccc2)c1Cl [I-852] | 1.83[a] | 
30 | O=C(NC1CCCC2CCCCC21)c1snc(Cl)c1Cl (stereo not shown) [E-II-026] |  | 5.43^[a]
31 | O=C(NCc1ccc(Cl)cc1)c1snc(N=CN2CCCC2)c1Cl [II-030] |  | 2.17^[a]
32 | Nc1nsc(C(=O)N(Cc2cc(Cl)ccc2F)C2CC2)c1Cl [I-364] | 2.86[a] | 
33 | O=C(NCc1ccccc1F)c1snc(NC(=O)C2CC2)c1Cl [I-093] | 2.12[a] | 
34 | Nc1cc(C(=O)NCc2c(F)cc(F)cc2F)sn1 [I-180] | 1.50[a] | 
35 | COc1ccc(CNc2nsc(C(=O)N3CCCc4cc(OC)ccc43)c2Cl)cc1 [II-063] |  | 3.72^[a]
36 | COc1ccc(CNc2nsc(C(=O)NCc3cccc(C(C)C)n3)c2Cl)cc1 [I-1274] | 2.94[a] | 
37 | O=CCCNc1nsc(C(=O)NCC2CCCCC2)c1Cl [I-715] | 2.83[a] | 
38 | CC(NC(=O)c1snc(N)c1Cl)c1ccccc1Cl (stereo not shown) [I-142] | 2.46[a] | 
39 | Cc1cc(F)ccc1CNC(=O)c1snc(NC(=O)C(F)F)c1Cl [I-809] | 2.28[a] | 
40 | O=C(NCc1ccccc1F)c1snc(Nc2ccccc2)c1Cl [I-067] | 3.63[a] | 
